Test results reported in EP3375430A1, “FRAGRANCE COMPOSITIONS” (Takasago International Corporation, priority 2017, dated 2018).

Assays:
[1] = Amount of fragrance ingredients retained on paper blotter after evaporation (ethanol extraction, GC-MS); type: physicochemical
Summary of the method: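 100 µL of fragrance formulation applied to paper blotters kept at 32°C open to air; at each time three blotters extracted 1 h in ethanol with methyl decanoate internal standard and analysed by GC-MS (HP-5MS, 50–280°C). Amounts averaged over triplicates and expressed as percent of time-zero level.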

[2] = Headspace concentration of fragrance ingredients over blotter (thermal desorption GC-MS); type: physicochemical;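 for headspace concentration in composition C1 compared to control EdT1: C1 is an invention composition and EdT1 a conventional EdT of fragrance TAK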
Summary of the method: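 Fragrance (100µL) applied to a 10 cm perfumers' blotter held on a 32°C hot plate, equilibrated 5 min; headspace drawn through Tenax TA tubes at 17mL/min until 280mL collected, repeated at later sampling times. Tubes thermally desorbed splitless onto HP-5MS column, GC-MS detection, mass range 35 to 350.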

CC(=O)OC1CCCCC1C(C)(C)C (centres unmarked) [Verdox™, (2-tert-butylcyclohexyl) acetate]
amount of fragrance ingredient retained on blotter (percentage of the initial amount) ([1]; Table 3, fragrance TAK in C1, 15 min, 32°C): 80%
amount of fragrance ingredient retained on blotter (percentage of the initial amount) ([1]; Table 3, fragrance TAK in C1, 60 min, 32°C): 62%
amount of fragrance ingredient retained on blotter (percentage of the initial amount) ([1]; Table 3, fragrance TAK in C1, 120 min, 32°C): 39%
amount of fragrance ingredient retained on blotter (percentage of the initial amount) ([1]; Table 3, fragrance TAK in C1, 240 min, 32°C): 18%
amount of fragrance ingredient retained on blotter (percentage of the initial amount) ([1]; Table 3, fragrance TAK in C1, 480 min, 32°C): 2%
amount of fragrance ingredient retained on blotter (percentage of the initial amount) ([1]; Table 3, fragrance TAK in EdT1, 15 min, 32°C): 70%
amount of fragrance ingredient retained on blotter (percentage of the initial amount) ([1]; Table 3, fragrance TAK in EdT1, 60 min, 32°C): 29%
amount of fragrance ingredient retained on blotter (percentage of the initial amount) ([1]; Table 3, fragrance TAK in EdT1, 120 min, 32°C): 2%
amount of fragrance ingredient retained on blotter (percentage of the initial amount) ([1]; Table 3, fragrance TAK in EdT1, 240 min, 32°C): <1%
amount of fragrance ingredient retained on blotter (percentage of the initial amount) ([1]; Table 3, fragrance TAK in EdT1, 480 min, 32°C): 1%
amount of fragrance ingredient retained on blotter (percentage of the initial amount) ([1]; Table 3, fragrance TAK in EdT1 or C1, T0, set at 100% (normalisation)): 100%
amount of fragrance ingredient retained on blotter (percentage of the initial amount) ([1]; Table 4, fragrance TAK in C2, 15 min, 32°C): 92%
amount of fragrance ingredient retained on blotter (percentage of the initial amount) ([1]; Table 4, fragrance TAK in C2, 480 min, 32°C): 3%
amount of fragrance ingredient retained on blotter (percentage of the initial amount) ([1]; Table 4, fragrance TAK in EdT1, 15 min, 32°C): 74%
amount of fragrance ingredient retained on blotter (percentage of the initial amount) ([1]; Table 4, fragrance TAK in EdT1, 480 min, 32°C): <1%
amount of fragrance ingredient retained on blotter (percentage of the initial amount) ([1]; Table 4, fragrance TAK in EdT1 or C2, T0, set at 100% (normalisation)): 100%
amount of fragrance ingredient retained on blotter (percentage of the initial amount) ([1]; Table 5, fragrance TAK in C3, 15 min, 32°C): 83%
amount of fragrance ingredient retained on blotter (percentage of the initial amount) ([1]; Table 5, fragrance TAK in C3, 60 min, 32°C): 64%
amount of fragrance ingredient retained on blotter (percentage of the initial amount) ([1]; Table 5, fragrance TAK in C3, 120 min, 32°C): 44%
amount of fragrance ingredient retained on blotter (percentage of the initial amount) ([1]; Table 5, fragrance TAK in C3, 240 min, 32°C): 27%
amount of fragrance ingredient retained on blotter (percentage of the initial amount) ([1]; Table 5, fragrance TAK in C3, 480 min, 32°C): 3%
amount of fragrance ingredient retained on blotter (percentage of the initial amount) ([1]; Table 5, fragrance TAK in C3, 1440 min, 32°C): <1%
amount of fragrance ingredient retained on blotter (percentage of the initial amount) ([1]; Table 5, fragrance TAK in EdT1, 15 min, 32°C): 70%
amount of fragrance ingredient retained on blotter (percentage of the initial amount) ([1]; Table 5, fragrance TAK in EdT1, 60 min, 32°C): 27%
amount of fragrance ingredient retained on blotter (percentage of the initial amount) ([1]; Table 5, fragrance TAK in EdT1, 120 min, 32°C): 2%
amount of fragrance ingredient retained on blotter (percentage of the initial amount) ([1]; Table 5, fragrance TAK in EdT1, 240 min, 32°C): <1%
amount of fragrance ingredient retained on blotter (percentage of the initial amount) ([1]; Table 5, fragrance TAK in EdT1, 480 min, 32°C): 1%
amount of fragrance ingredient retained on blotter (percentage of the initial amount) ([1]; Table 5, fragrance TAK in EdT1, 1440 min, 32°C): <1%
amount of fragrance ingredient retained on blotter (percentage of the initial amount) ([1]; Table 5, fragrance TAK in EdT1 or C3, T0, set at 100% (normalisation)): 100%
amount of fragrance ingredient retained on blotter (percentage of the initial amount) ([1]; Table 6, fragrance TAK in C4, 15 min, 32°C): 83%
amount of fragrance ingredient retained on blotter (percentage of the initial amount) ([1]; Table 6, fragrance TAK in C4, 60 min, 32°C): 64%
amount of fragrance ingredient retained on blotter (percentage of the initial amount) ([1]; Table 6, fragrance TAK in C4, 120 min, 32°C): 36%
amount of fragrance ingredient retained on blotter (percentage of the initial amount) ([1]; Table 6, fragrance TAK in C4, 240 min, 32°C): 18%
amount of fragrance ingredient retained on blotter (percentage of the initial amount) ([1]; Table 6, fragrance TAK in C4, 480 min, 32°C): 3%
amount of fragrance ingredient retained on blotter (percentage of the initial amount) ([1]; Table 6, fragrance TAK in EdT1, 15 min, 32°C): 70%
amount of fragrance ingredient retained on blotter (percentage of the initial amount) ([1]; Table 6, fragrance TAK in EdT1, 60 min, 32°C): 29%
amount of fragrance ingredient retained on blotter (percentage of the initial amount) ([1]; Table 6, fragrance TAK in EdT1, 120 min, 32°C): 2%
amount of fragrance ingredient retained on blotter (percentage of the initial amount) ([1]; Table 6, fragrance TAK in EdT1, 240 min, 32°C): <1%
amount of fragrance ingredient retained on blotter (percentage of the initial amount) ([1]; Table 6, fragrance TAK in EdT1, 480 min, 32°C): 1%
amount of fragrance ingredient retained on blotter (percentage of the initial amount) ([1]; Table 6, fragrance TAK in EdT1 or C4, T0, set at 100% (normalisation)): 100%
amount of fragrance ingredient retained on blotter (percentage of the initial amount) ([1]; Table 9, fragrance COM1 in C5, T0 + 15 min): 75.1%
amount of fragrance ingredient retained on blotter (percentage of the initial amount) ([1]; Table 9, fragrance COM1 in C5, T0 + 480 min): 1.9%
amount of fragrance ingredient retained on blotter (percentage of the initial amount) ([1]; Table 9, fragrance COM1 in C5, T0 +1440 min): <1%
amount of fragrance ingredient retained on blotter (percentage of the initial amount) ([1]; Table 9, fragrance COM1 in C6, T0 + 15 min): 66.4%
amount of fragrance ingredient retained on blotter (percentage of the initial amount) ([1]; Table 9, fragrance COM1 in C6, T0 + 480 min): 1.7%
amount of fragrance ingredient retained on blotter (percentage of the initial amount) ([1]; Table 9, fragrance COM1 in C6, T0 +1440 min): 1.0%
amount of fragrance ingredient retained on blotter (percentage of the initial amount) ([1]; Table 9, fragrance COM1 in EdT2, C5 or C6, T0, set at 100% (normalisation)): 100%
amount of fragrance ingredient retained on blotter (percentage of the initial amount) ([1]; Table 9, fragrance COM1 in EdT2, T0 + 15 min): 61.7%
amount of fragrance ingredient retained on blotter (percentage of the initial amount) ([1]; Table 9, fragrance COM1 in EdT2, T0 + 480 min): 3.7%
amount of fragrance ingredient retained on blotter (percentage of the initial amount) ([1]; Table 9, fragrance COM1 in EdT2, T0 +1440 min): 2.90%
headspace concentration in composition C8 compared to control EdT4 ([2]; COM1 dosed at 20 wt%, up to 8 hours, Figures 8 to 10): significantly higher
headspace concentration in composition C1 compared to control EdT1 ([2]; fragrance TAK, T0 + 4h, Figure 3): significantly greater
headspace concentration in composition C14 compared to control EdT1 ([2]; fragrance TAK, T0+4h and T0+8h, Figures 17 and 18): significantly greater
headspace concentration in composition C15 compared to control EdT1 ([2]; fragrance TAK, T0+4h and T0+8h, Figures 20 and 21, difference significant for linalool, linalyl acetate and Verdox™): greater
headspace concentration in composition C1 compared to control EdT1 ([2]; fragrance TAK, T0 + 8h, Figure 4): much greater
headspace concentration in composition C1 compared to control EdT1 ([2]; fragrance TAK, after 1 hour, Figure 2): greater
